Key:
KB = assay: DNA-PEI transfection with trehalose, GFP expression percentage, KB; format: cell-based; details: 20 mM trehalose
From the text: (§1) FIG. 6 presents the effects of disaccharides on the transfection efficiency of in vitro cultured CHO cells that are transfected with transfection reagents containing PEI and different disaccharides. The x-axis in FIG. 6 represents the concentrations of different disaccharide in the transfection reagent, and the y-axis represents the GFP expression percentage of the transfected CHO cells detected by a flow cytometer. The GFP expression percentage of the transfected CHO cells is used as an indicator of transfection efficiency. […] The effect of disaccharides in the transfection reagent on transfection efficiency is then analyzed. […] In other words, the cell transfection efficiency is enhanced.
(§2) FIGS. 7A and & 7B show the optimal trehalose concentrations for enhancing the transfection expression mediated by DNA-PEI complexes in different cell lines. The x-axis in FIGS. 7A and 7B […] represents the concentrations of trehalose in the transfection reagent, and the y-axis represents the GFP expression percentage of the cells as an indicator of transfection efficiency The transfection procedures in these experiments of different cell lines are identical to those described previously for CHO cells in experiment 5. […] Moreover, the extents of enhancement on the transfection efficiency depend on the cell lines. […]

CHO cells = assay: MTT cellular viability of CHO cells transfected with DNA-PEI complexes plus trehalose; format: cell-based, Chinese hamster; details: PEI to DNA charge ratio 9:1; nontransfected CHO cells = 100%
From the text: The x-axis in FIG. 5 represents different trehalose concentrations and the y-axis represents cellular viability analyzed by the MTT assay. In the experiments, the PEI to DNA charge ratio in the transfection reagent is maintained at 9:1, and the viability of nontransfected CHO cells is set at 100%. […] In other words, the incorporation of trehalose mitigates the toxic effect of the transfection reagent.

MDA-MB-231 = assay: DNA-PEI transfection with trehalose, GFP expression percentage, MDA-MB-231; format: cell-based; details: 20 mM trehalose, MDA-MD-231
From the text: as §1, §2

[1] = system: Chinese hamster ovary (CHO) cells; assay: In vitro transfection of CHO cells with pEGFP-C1 plasmid and DOTAP liposomes plus disaccharides, GFP by flow cytometer; format: cell-based; details: DOTAP liposomes, appropriate amount of disaccharide
From the text: FIG. 2 present the effects of disaccharides on the transgene expression of cultured Chinese hamster ovary (CHO) cells subjected to an in vitro transfection of DNA with a transfection reagent containing DOTAP and various disaccharides. The x-axis in FIG. 2 refers to the disaccharide concentration in the transfection reagent, and the y-axis in FIG. 2 represents the GFP (green fluorescent protein)-positive percentage of the transfected CHO cells measured by a flow cytometer. The GFP-positive percentage of the CHO cells is used as an indicator of transfection efficiency. In the experiments shown in FIG. 2, various concentrations of cellobiose, lactose, sucrose, trehalose and maltose are respectively incorporated into a transfection reagent containing pEGFP-C1 plasmid and DOTAP liposomes, and in vitro transfections are performed with the transfection reagents containing different disaccharides. The GFP-positive percentage of CHO cells is then detected for each transfection reagent sample. […] In other words, the incorporation of a disaccharide into the transfection reagent affects the transfection efficiency. Moreover, the changes in transfection efficiency are related to the type and the concentration of the disaccharide in the transfection reagent. […] More particularly, the transfection efficiency increases from 28% to more than 40% at 180 mM of lactose, sucrose or trehalose in a transfection reagent. The transfection efficiency is doubled when 120 mM of cellobiose is incorporated into a transfection reagent.

mouse muscles = assay: In vivo transfection of muscles by direct intramuscular injection of naked plasmid plus disaccharides, luciferase luminescence
Procedure: The following experiments are conducted using naked nucleic acid delivery system for directly transfecting plasmid DNA into the cells of animals, and additional viral or non-viral vector is precluded. The transfection reagent is incorporated with various concentrations of disaccharides as an enhancer, and the effects of disaccharides in the naked nucleic acid delivery system on the cell transfection are observed.
FIG. 9 presents the effects of various disaccharides on the transgene expression of mouse muscles after direct intramuscular injection of naked plasmid. The transfection procedures in these experiments are identical to those described previously in experiment 3. The major differences between the two experiments are the vector applied and the method of transfection as well as the administration route into the body of the […]. The x-axis in FIG. 9 represents the types of disaccharides, and the y-axis represents the luminescent intensity, measured by a luminometer and expressed as relative light unit (RLU) per mg of muscular tissue protein, wherein the luminescent intensity is used as an indicator to evaluate the transfection efficiency.
FIG. 10 presents the effects of trehalose concentrations on the transgene expression of mouse muscles after direct intramuscular injection of naked plasmid. The x-axis in FIG. 10 represents the concentrations of trehalose in the transfection reagent, and the y-axis represents the luminescent intensity, measured by a luminometer and expressed as relative light unit (RLU) per mg of muscular tissue protein. The luminescent intensity is used as an indicator to evaluate transfection efficiency.
[…] presents the effects of gene dosage on the transgene expression of mouse muscles in the presence of trehalose after direct intramuscular injection of naked plasmid. The x-axis in FIG. 11 represents the amount of DNA plasmid, and the y-axis represents the luminescent intensity, measured by a luminometer and expressed as relative light unit (RLU) per mg of muscular tissue protein, wherein the luminescent intensity is used as an indicator to evaluate the transfection efficiency.
FIG. 12 presents the effects of the trehalose on the durations of transgene expression of mouse muscles after direct intramuscular injection of naked plasmid. The x-axis in FIG. 12 represents the days after the intramuscular injection, and the y-axis represents the luminescent intensity, measured by a luminometer and expressed as relative light unit (RLU) per mg of muscular tissue protein, wherein the luminescent intensity is used as an indicator to evaluate the transfection efficiency of gWiz-luciferase plasmid. […] In other words, trehalose might extend the durations of nucleic acid remaining inside the cells, and therefore prolonged the durations of transgene expression.

OC[C@H]1O[C@H](O[C@H]2O[C@H](CO)[C@@H](O)[C@H](O)[C@H]2O)[C@H](O)[C@@H](O)[C@@H]1O [trehalose]
enhancement of percentage of GFP positive cells (KB): ~13%
cellular viability analyzed by the MTT assay (CHO cells): increases the cellular viability
enhancement of percentage of GFP positive cells (MDA-MB-231): about 50%
effect on transfection efficiency [1]: increases significantly
duration of transgene expression (muscle luminescence over days after injection) (mouse muscles; naked gWiz-luciferase plasmid): higher luminescence intensities for a longer period of time
luminescent intensity (RLU per mg of muscular tissue protein) versus control group without disaccharides (mouse muscles; naked plasmid, 10 mM disaccharide): higher luminescent intensity
transfection efficiency versus control group without trehalose at the same amount of plasmid DNA (mouse muscles; naked plasmid, 10 mM trehalose): significantly higher
effect of trehalose concentration on transfection efficiency (muscle luminescent intensity) (mouse muscles; naked plasmid, trehalose between about 10 mM to 12.5 mM): increases significantly
